Values joined by “and” are separate entries in the source; they are usually repeats but may differ in a detail not shown here. Equal entries are not always repeated. Inconclusive results and toxic doses are left out. Cut-off read from the data, not from the text of the source: active = T/C of 150% or more; inactive = T/C below 125%.
System: L1210 leukemia ip in BDF1 mice, survival T/C
Assay: NCI In Vivo Anticancer Drug Screen. Data for tumor model L1210 Leukemia (intraperitoneal) in B6D2F1 (BDF1) mice
Settings: endpoint: mean survival time, higher = longer survival
Summary of the method: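 Value reflects the ratio of survival in compound-treated mice to survival in vehicle-treated controls, with both groups carrying the same transplanted tumor.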

[1] = dose: 100.0 mg/kg/injection, schedule: Q01DX001 (ip), vehicle: carboxymethylcellulose (CMC)
[2] = dose: 200.0 mg/kg/injection, schedule: Q01DX001 (ip), vehicle: carboxymethylcellulose (CMC)
[3] = dose: 400.0 mg/kg/injection, schedule: Q01DX001 (ip), vehicle: carboxymethylcellulose (CMC)
[4] = dose: 100.0 mg/kg/injection, schedule: Q04DX003 (ip), vehicle: saline
[5] = dose: 200.0 mg/kg/injection, schedule: Q04DX003 (ip), vehicle: saline
[6] = dose: 400.0 mg/kg/injection, schedule: Q04DX003 (ip), vehicle: saline
[7] = dose: 100.0 mg/kg/injection, schedule: Q01DX001 (ip), vehicle: saline
[8] = dose: 200.0 mg/kg/injection, schedule: Q01DX001 (ip), vehicle: saline
[9] = dose: 400.0 mg/kg/injection, schedule: Q01DX001 (ip), vehicle: saline
[10] = dose: 100.0 mg/kg/injection, schedule: Q01DX009 (ip), vehicle: Klucel (hydroxypropylcellulose) (HPC)
[11] = dose: 100.0 mg/kg/injection, schedule: Q04DX002 (ip), vehicle: Klucel (hydroxypropylcellulose) (HPC)
[12] = dose: 200.0 mg/kg/injection, schedule: Q01DX009 (ip), vehicle: Klucel (hydroxypropylcellulose) (HPC)
[13] = dose: 200.0 mg/kg/injection, schedule: Q04DX002 (ip), vehicle: Klucel (hydroxypropylcellulose) (HPC)
[14] = dose: 400.0 mg/kg/injection, schedule: Q01DX009 (ip), vehicle: Klucel (hydroxypropylcellulose) (HPC)
[15] = dose: 400.0 mg/kg/injection, schedule: Q04DX002 (ip), vehicle: Klucel (hydroxypropylcellulose) (HPC)
[16] = dose: 100.0 mg/kg/injection, schedule: Q04DX003 (ip), vehicle: saline with Tween-80
[17] = dose: 200.0 mg/kg/injection, schedule: Q04DX003 (ip), vehicle: saline with Tween-80
[18] = dose: 400.0 mg/kg/injection, schedule: Q04DX003 (ip), vehicle: saline with Tween-80
[19] = dose: 50.0 mg/kg/injection, schedule: Q01DX009 (ip), vehicle: saline with Tween-80
[20] = dose: 100.0 mg/kg/injection, schedule: Q01DX009 (ip), vehicle: saline with Tween-80
[21] = dose: 200.0 mg/kg/injection, schedule: Q01DX009 (ip), vehicle: saline with Tween-80
[22] = dose: 400.0 mg/kg/injection, schedule: Q01DX009 (ip), vehicle: saline with Tween-80
[23] = dose: 100.0 mg/kg/injection, schedule: Q04DX003 (ip), vehicle: Klucel (hydroxypropylcellulose) (HPC)
[24] = dose: 200.0 mg/kg/injection, schedule: Q04DX003 (ip), vehicle: Klucel (hydroxypropylcellulose) (HPC)
[25] = dose: 400.0 mg/kg/injection, schedule: Q04DX003 (ip), vehicle: Klucel (hydroxypropylcellulose) (HPC)
[26] = dose: 100.0 mg/kg/injection, schedule: Q04DX002 (ip), vehicle: saline with Tween-80
[27] = dose: 200.0 mg/kg/injection, schedule: Q04DX002 (ip), vehicle: saline with Tween-80
[28] = dose: 400.0 mg/kg/injection, schedule: Q04DX002 (ip), vehicle: saline with Tween-80

Measured: T/C

COC(=O)c1sc2ccccc2c1C
inactive: [1] 104 % of control | [2] 98 % of control | [3] 98 % of control

CC(O)CN1CCOCC1 (stereo not given)
inactive: [4] 100 % of control | [5] 97 % of control | [6] 107 % of control

O=C(CS(=O)(=O)Cc1ccccc1)N1CCOCC1
inactive: [7] 95 % of control | [8] 93 % of control | dose: 200.0 mg/kg/injection, schedule: Q01DX009 (ip), vehicle: saline 89 % of control | [9] 93 % of control | dose: 400.0 mg/kg/injection, schedule: Q01DX009 (ip), vehicle: saline 102 % of control

Cc1ccc(C)n1CCn1c(C)ccc1C
inactive: [10] 91 % of control | [11] 88 % of control | [12] 94 % of control | [13] 93 % of control | [14] 91 % of control | [15] 96 % of control

COC(=O)C(N)CO (stereo not given)
inactive: [16] 105 % of control | [17] 105 % of control | [18] 91 % of control

CC12CCc3oc(-c4ccccc4)cc3C1=CCCC2=O (stereo not given)
inactive: dose: 100.0 mg/kg/injection, schedule: Q01DX001 (ip), vehicle: saline with Tween-80 102 % of control | dose: 200.0 mg/kg/injection, schedule: Q01DX001 (ip), vehicle: saline with Tween-80 94 % of control | dose: 400.0 mg/kg/injection, schedule: Q01DX001 (ip), vehicle: saline with Tween-80 96 % of control

NC(=O)C1=C(CCCCl)c2ccccc2C1=O
inactive: [19] 100 % of control

CCCCNC(C)(C)C(S)c1ccc(Cl)cc1 (stereo not given)
inactive: dose: 12.0 mg/kg/injection, schedule: Q01DX009 (ip), vehicle: Klucel (hydroxypropylcellulose) (HPC) 104 % of control | dose: 25.0 mg/kg/injection, schedule: Q01DX009 (ip), vehicle: Klucel (hydroxypropylcellulose) (HPC) 108 % of control

CSc1ccc(NS(=O)(=O)CCNC(=O)C(O)C(C)(C)CO)cc1 (stereo not given)
inactive: [20] 100 % of control | [16] 104 % of control | [21] 103 % of control | [17] 96 % of control | [22] 92 % of control | [18] 109 % of control

NC(=S)c1nnn(Cc2ccccc2)c1N
inactive: [7] 100 % of control | [8] 101 % of control | [9] 102 % of control

O=C1CCC(OC(=O)c2ccccc2)CC1
inactive: [10] 97 % of control | [23] 101 % of control | [12] 95 % of control | [24] 101 % of control | [14] 100 % of control | [25] 90 % of control

CCCCCCCC(=O)Nc1ccccc1CC
inactive: [16] 93 % of control | [17] 95 % of control | [18] 86 % of control

C=CC(C)(C)c1c2c(c(O)c3c(=O)c4ccc(O)c(O)c4oc13)C=CC(C)(C)O2
inactive: [1] 95 % of control | [2] 92 % of control | [3] 95 % of control

CC(=O)OCC(=O)[C@@]1(O)CC[C@H]2[C@@H]3CCC4=CC(=O)[C@H](C)C[C@]4(C)[C@H]3[C@@H](O)C[C@@]21C
inactive: dose: 50.0 mg/kg/injection, schedule: Q01DX001 (sc), vehicle: steriod suspending solution 111 % of control | dose: 100.0 mg/kg/injection, schedule: Q01DX001 (sc), vehicle: steriod suspending solution 102 % of control | dose: 100.0 mg/kg/injection, schedule: Q04DX003 (sc), vehicle: steriod suspending solution 100 % of control | dose: 200.0 mg/kg/injection, schedule: Q01DX001 (sc), vehicle: steriod suspending solution 102 % of control | dose: 200.0 mg/kg/injection, schedule: Q04DX003 (sc), vehicle: steriod suspending solution 105 % of control | dose: 400.0 mg/kg/injection, schedule: Q01DX001 (sc), vehicle: steriod suspending solution 110 % of control | dose: 400.0 mg/kg/injection, schedule: Q04DX003 (sc), vehicle: steriod suspending solution 107 % of control

COc1ccccc1NC(=S)Nc1ccccc1
inactive: [11] 97 % of control | [13] 101 % of control | [15] 108 % of control

CC1(C)C(=O)C(C)(C)C1=NO
inactive: [4] 103 % of control | [5] 95 % of control | [6] 103 % of control

Nc1ccc(C(=O)NO)cc1
inactive: dose: 62.0 mg/kg/injection, schedule: Q03HX024 (ip), vehicle: saline with Tween-80 101 % of control | [10] 98 % of control | dose: 125.0 mg/kg/injection, schedule: Q03HX024 (ip), vehicle: saline with Tween-80 97 % of control | [12] 98 % of control | dose: 200.0 mg/kg/injection, schedule: Q01DX Z (ip), vehicle: carboxymethylcellulose (CMC) 118 % of control | dose: 200.0 mg/kg/injection, schedule: Q01DX Z (ip), vehicle: saline 117 % of control and 123 % of control | dose: 300.0 mg/kg/injection, schedule: Q01DX Z (ip), vehicle: carboxymethylcellulose (CMC) 115 % of control | [14] 108 % of control | dose: 443.0 mg/kg/injection, schedule: Q01DX Z (ip), vehicle: saline 119 % of control | dose: 675.0 mg/kg/injection, schedule: Q01DX Z (ip), vehicle: saline 91 % of control | dose: 800.0 mg/kg/injection, schedule: Q01DX009 (ip), vehicle: Klucel (hydroxypropylcellulose) (HPC) 106 % of control

c1ccc([As]2c3ccccc3Nc3ccccc32)cc1
inactive: [26] 89 % of control | [27] 86 % of control | [28] 86 % of control

[CH3][Ge]([CH3])([CH3])[CH2]CCl
inactive: [26] 98 % of control | [27] 91 % of control | [28] 98 % of control

COc1cc(C)ccc1Cl
inactive: [19] 107 % of control | [20] 113 % of control | [21] 110 % of control

COc1ccc(OCCOC(=O)Nc2ccc(C)cc2[N+](=O)[O-])cc1
inactive: dose: 50.0 mg/kg/injection, schedule: Q01DX009 (ip), vehicle: Klucel (hydroxypropylcellulose) (HPC) 97 % of control | [10] 90 % of control | [23] 103 % of control | [12] 90 % of control | [24] 103 % of control | [25] 100 % of control

CCOC(=O)c1cnc(SC)nc1NCc1ccccc1Cl
inactive: [10] 102 % of control | [23] 106 % of control | [12] 97 % of control | [24] 105 % of control | [14] 97 % of control | [25] 95 % of control

Cc1ccc(C(c2ccccc2)C(COS(C)(=O)=O)COS(C)(=O)=O)cc1 (stereo not given)
inactive: dose: 75.0 mg/kg/injection, schedule: Q04DX002 (ip), vehicle: Klucel (hydroxypropylcellulose) (HPC) 90 % of control | dose: 150.0 mg/kg/injection, schedule: Q04DX002 (ip), vehicle: Klucel (hydroxypropylcellulose) (HPC) 97 % of control | dose: 300.0 mg/kg/injection, schedule: Q04DX002 (ip), vehicle: Klucel (hydroxypropylcellulose) (HPC) 108 % of control

CCCC[As](=O)(O)CC(C)C
inactive: dose: 6.25 mg/kg/injection, schedule: Q01DX009 (ip), vehicle: saline 93 % of control | dose: 12.5 mg/kg/injection, schedule: Q01DX009 (ip), vehicle: saline 101 % of control

CSCCC(NC(=O)CN)C(=O)O (stereo not given)
inactive: [7] 96 % of control | [8] 104 % of control | [9] 102 % of control

CC(=O)N(C(C)=O)c1ccc2c(c1)-n1cccc1C2=O
inactive: [23] 100 % of control | [24] 101 % of control | [25] 98 % of control

COC(=O)c1cc(NC(=O)Nc2cccc(C(F)(F)F)c2)cc(C(=O)OC)c1
inactive: [20] 100 % of control | [21] 92 % of control | [22] 96 % of control

COc1ccc(OC)c(NC(=O)c2cc3ccccc3cc2OC(=O)Nc2cc(Cl)ccc2OC)c1
inactive: [20] 94 % of control | [26] 103 % of control and 112 % of control | [16] 103 % of control | [21] 98 % of control and 89 % of control | [27] 97 % of control and 87 % of control | [17] 102 % of control | [22] 102 % of control and 89 % of control | [28] 101 % of control and 91 % of control | [18] 97 % of control

Reference: PubChem BioAssay AID248 (DTP/NCI, 2004)
